Structures can show the parent of a compound that is named as a salt.

The target of experiment [1] is T1, Carbonic anhydrase 1 (Drosophila melanogaster, UniProt Q9V396).
T1 sequence (Q9V396 whole entry): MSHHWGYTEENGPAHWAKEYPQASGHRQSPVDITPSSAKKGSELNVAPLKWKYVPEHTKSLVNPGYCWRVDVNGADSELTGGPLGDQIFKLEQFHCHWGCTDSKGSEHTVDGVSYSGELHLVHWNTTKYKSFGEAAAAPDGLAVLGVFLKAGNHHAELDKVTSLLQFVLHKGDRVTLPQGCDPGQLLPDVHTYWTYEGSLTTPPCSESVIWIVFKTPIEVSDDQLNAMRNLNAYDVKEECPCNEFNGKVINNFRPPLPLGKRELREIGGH
In words: Inhibition of Drosophila melanogaster recombinant carbonic anhydrase-1 expressed in Escherichia coli BL21 (DE3) preincubated for 15 mins by CO2 hydration stopped-flow assay.

Experiment [2] deals with T2, Carbonic anhydrase 2, isoform A (Drosophila melanogaster, UniProt Q9VTU8).
T2 sequence (Q9VTU8 whole entry): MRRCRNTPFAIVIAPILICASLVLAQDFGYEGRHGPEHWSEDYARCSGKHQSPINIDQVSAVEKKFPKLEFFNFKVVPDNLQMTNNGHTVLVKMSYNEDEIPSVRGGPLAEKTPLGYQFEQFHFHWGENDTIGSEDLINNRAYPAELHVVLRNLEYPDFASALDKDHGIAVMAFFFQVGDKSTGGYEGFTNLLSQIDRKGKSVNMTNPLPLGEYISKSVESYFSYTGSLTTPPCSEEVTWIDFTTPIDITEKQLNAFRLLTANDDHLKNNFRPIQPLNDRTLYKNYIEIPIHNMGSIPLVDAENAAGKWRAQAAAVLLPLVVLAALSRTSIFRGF
Briefly: Inhibition of Drosophila melanogaster recombinant carbonic anhydrase-2 expressed in Escherichia coli BL21 (DE3) preincubated for 15 mins by CO2 hydration stopped-flow assay.

The nature of experiment [3]: Inhibition of Drosophila melanogaster recombinant beat carbonic anhydrase expressed in Escherichia coli BL21 (DE3) preincubated for 15 mins by CO2 hydration stopped-flow assay.

Consider `S=C(S)N1CCOCC1` [MORPHOLINECARBAMODITHIOATE SODIUM SALT], for which the results for the Ki in experiment [1] and in experiment [2] were 13.8 nM and 0.8 nM, respectively.
Regarding `CN(C)C(=S)S` [SODIUM DIMETHYLCARBAMODITHIOATE], the figures for the Ki in experiment [1] and in experiment [2] were 3460 nM and 769 nM, respectively.
As for `S=C(S)NCCN1CCOCC1`, the results for the Ki in experiment [1] and in experiment [2] were 12.1 nM and 10.4 nM, respectively.
For the compound `CCCN(CCC)C(=S)S` [DIPROPYLCARBAMODITHIOATE SODIUM SALT], the inhibition constant (Ki) in experiment [1] amounted to 23.4 nM; in experiment [2], 3.9 nM.
As for `CCCCCCN(CCCCCC)C(=S)S` [DIHEXYLCARBAMODITHIOATE SODIUM SALT], the Ki worked out at 1.4 nM in experiment [1] and 3.8 nM in experiment [2].
For `S=C(S)N1CCCC1`, the Ki in experiment [1] was found to be 135 nM; in experiment [2], 4.7 nM.
For `NCCCn1ccnc1.S=C(S)NCCCn1ccnc1`, the Ki in experiment [1] turned out to be 0.9 nM; in experiment [2], 24.1 nM.
As for `O=C(O)[C@@H]1CCCN1C(=S)S`, the inhibition constant Ki stood at 1.4 nM in experiment [1] and 13.6 nM in experiment [2].
Turning to `CCN(CC)C(=S)S` [DITIOCARB SODIUM], the Ki stood at 2350 nM in experiment [1] and 654 nM in experiment [2].
In the case of `S=C(S)Nc1ccccc1` [TRIETHYLAMMONIUM PHENYLCARBAMODITHIOATE], the inhibitory constant (Ki) in experiment [1] is 21.4 nM; in experiment [2], 33.9 nM.
With `S=C(S)Nc1cccs1`, the inhibition constant Ki worked out at 0.5 nM in experiment [1] and 3.9 nM in experiment [2].
As to `O=C(O)CNC(=S)S`, the inhibitory constant (Ki) in experiment [1] worked out at 123 nM; in experiment [2] it was 76.5 nM.
On to `CC(=O)Nc1nnc(S(N)(=O)=O)s1` [ACETAZOLAMIDE], for which the Ki in experiment [3] is 49 nM.
`CCC(C)NC(=S)S` (racemic): the Ki in experiment [1] worked out at 325 nM; in experiment [2], 0.9 nM.
Regarding `S=C(S)NCc1ccncc1`, the Ki in experiment [1] amounted to 35.1 nM; in experiment [2], 58.8 nM.
Turning to `CN(C(=S)S)c1ccccc1` [SODIUM METHYL(PHENYL)CARBAMODITHIOATE], the Ki is 67.1 nM in experiment [1] and 5.9 nM in experiment [2].
The like results for `CCCCN(CC)C(=S)S` [ETHYLBUTYLCARBAMODITHIOATE SODIUM SALT] were, in that order, 10.5 nM and 21.9 nM.
For the compound `S=C(S)NN1CCOCC1` [POTASSIUM MORPHOLINOCARBAMODITHIOATE], the Ki in experiment [1] stood at 13.1 nM; in experiment [2], 20.7 nM.
As for `OCCN(CCO)C(=S)S`, the figures for the Ki in experiment [1] and in experiment [2] were 3.2 nM and 134 nM, respectively.
On to `S=C(S)N1CCN(C(=S)S)CC1` [PIPERAZINECARBAMODITHIOATE DISODIUM SALT], for which the inhibition constant (Ki) is 0.9 nM in experiment [1] and 21.6 nM in experiment [2].
As for `S=C(S)NCCN1CCCCC1`, the inhibition constant (Ki) in experiment [1] was 57.1 nM; in experiment [2], 26.7 nM.
The like results for `CCCCN(CCCC)C(=S)S` [DIBUTYLCARBAMODITHIOATE SODIUM SALT] were, in that order, 17.1 nM and 0.5 nM.
For the compound `CC(C)CN(CC(C)C)C(=S)S` [DIISOBUTYLCARBODITHIOIC ACID SODIUM SALT], the inhibitory constant (Ki) was found to be 20.2 nM in experiment [1] and 0.9 nM in experiment [2].
`S=C(S)NCCN(CCNC(=S)S)CNC(=S)S`: the Ki in experiment [1] worked out at 134 nM; in experiment [2], 1.5 nM.
The like results for `S=C(S)NCc1ccccc1` [SODIUM BENZYLCARBAMODITHIOATE] were, in that order, 0.8 nM and 213 nM.
The like results for `CN(Cc1ccccc1)C(=S)S` [SODIUM BENZYL(METHYL)CARBAMODITHIOATE] were, in that order, 50.2 nM and 12.4 nM.
For the compound `CN1CCN(NC(=S)S)CC1`, the inhibition constant (Ki) in experiment [1] worked out at 0.9 nM; in experiment [2], 13.8 nM.

The term Ki denotes the dissociation constant of the complex between target and ligand, obtained from inhibition or displacement.

These data come from ChEMBL document CHEMBL2331089, “Characterization, bioinformatic analysis and dithiocarbamate inhibition studies of two new α-carbonic anhydrases, CAH1 and CAH2, from the fruit fly Drosophila melanogaster” (Bioorg Med Chem, 2013).
